Measurements: patent publication US7906491B2 (Univisitair Medisch Centrum Utrecht, priority 2002, dated 2011)

Columns and labels:
PKAI = experiment: Relative affinity for PKAI (cAMP = 1), in vitro; format: binding; settings: relative to cAMP = 1
PKAII = experiment: Relative affinity for PKAII (cAMP = 1), in vitro; format: binding; settings: relative to cAMP = 1
Epac1-ΔDEP1 = target: T1, Epac1-ΔDEP1 (Homo sapiens, UniProt O95398); experiment: In vitro GEF assay: Epac activity in the exchange reaction towards Rap (mantGDP-loaded Rap1b); format: biochemical; settings: in vitro in the exchange reaction towards Rap; further: key: +++: activity comparible to I-007; ++: activity between I-007 and cAMP; +: activity comparible to cAMP; ±: activity less than cAMP
T1 sequence (O95398 191-923 limits assumed): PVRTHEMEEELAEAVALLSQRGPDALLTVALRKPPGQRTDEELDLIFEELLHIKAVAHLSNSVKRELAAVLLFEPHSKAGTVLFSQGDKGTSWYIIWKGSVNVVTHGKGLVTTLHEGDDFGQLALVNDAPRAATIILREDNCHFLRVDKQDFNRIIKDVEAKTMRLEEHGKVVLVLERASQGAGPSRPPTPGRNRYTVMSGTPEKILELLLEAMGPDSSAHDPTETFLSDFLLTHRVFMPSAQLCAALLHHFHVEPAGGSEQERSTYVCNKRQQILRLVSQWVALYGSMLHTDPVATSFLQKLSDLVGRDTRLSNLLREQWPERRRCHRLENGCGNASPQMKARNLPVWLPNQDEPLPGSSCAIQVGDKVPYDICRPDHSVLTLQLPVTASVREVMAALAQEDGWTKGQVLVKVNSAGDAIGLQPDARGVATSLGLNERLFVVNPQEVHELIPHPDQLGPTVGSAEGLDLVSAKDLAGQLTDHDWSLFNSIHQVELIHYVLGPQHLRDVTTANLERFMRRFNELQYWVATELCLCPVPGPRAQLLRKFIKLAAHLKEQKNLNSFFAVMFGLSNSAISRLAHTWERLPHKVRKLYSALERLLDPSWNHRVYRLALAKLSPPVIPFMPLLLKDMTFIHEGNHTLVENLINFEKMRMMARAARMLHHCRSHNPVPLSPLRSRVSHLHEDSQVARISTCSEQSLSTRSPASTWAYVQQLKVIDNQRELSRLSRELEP
Description: In vitro GEF assays were performed as described (3,16). […] Buffer conditions were 50 mM Tris pH7.4, 150 mM NaCl, 5% glycerol, 5 mM DTE, 60 μM GTP. Reactions were carried out in 96-well plates and measured in a Cary Eclipse from Varian Inc., using the manufacturers software.

Epac = target: T2, Epac (Homo sapiens, UniProt O95398); experiment: Relative affinity for Epac (cAMP = 1), in vitro; format: binding; settings: relative to cAMP = 1
T2 sequence (O95398 1-923): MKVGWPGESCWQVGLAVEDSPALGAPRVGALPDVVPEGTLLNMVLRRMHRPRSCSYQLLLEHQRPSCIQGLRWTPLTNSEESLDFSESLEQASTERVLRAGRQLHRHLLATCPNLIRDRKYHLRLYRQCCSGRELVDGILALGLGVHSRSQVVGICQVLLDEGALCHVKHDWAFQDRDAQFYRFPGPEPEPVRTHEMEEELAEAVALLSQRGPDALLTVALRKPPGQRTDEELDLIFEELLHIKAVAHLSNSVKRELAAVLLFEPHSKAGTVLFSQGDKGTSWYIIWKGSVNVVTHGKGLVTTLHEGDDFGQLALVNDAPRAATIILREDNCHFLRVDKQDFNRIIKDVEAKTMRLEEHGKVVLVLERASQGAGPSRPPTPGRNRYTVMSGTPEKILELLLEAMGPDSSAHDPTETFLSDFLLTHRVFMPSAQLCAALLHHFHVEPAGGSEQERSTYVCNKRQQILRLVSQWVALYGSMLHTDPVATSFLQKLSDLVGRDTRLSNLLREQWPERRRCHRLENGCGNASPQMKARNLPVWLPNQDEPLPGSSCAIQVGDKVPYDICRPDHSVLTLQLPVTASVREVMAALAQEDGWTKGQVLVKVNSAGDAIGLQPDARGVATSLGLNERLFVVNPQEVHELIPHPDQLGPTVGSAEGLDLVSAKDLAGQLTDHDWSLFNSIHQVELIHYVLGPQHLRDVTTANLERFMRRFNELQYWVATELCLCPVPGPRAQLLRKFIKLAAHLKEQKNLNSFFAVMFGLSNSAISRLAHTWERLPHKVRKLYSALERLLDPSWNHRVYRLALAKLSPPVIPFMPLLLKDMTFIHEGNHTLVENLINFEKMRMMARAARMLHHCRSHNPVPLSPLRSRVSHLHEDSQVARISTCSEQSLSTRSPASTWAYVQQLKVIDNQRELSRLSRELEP

8-(2-amino-phenylthio)-2′-O-methyladenosine-3′,5′-cyclic monophosphate [Compound I-107]
Relative affinity CAMP = 1 PKAI (PKAI): 0.004
Relative affinity CAMP = 1 PKAII (PKAII): 0.0001
Relative activity of Epac* (Epac1-ΔDEP1): +
Relative affinity CAMP = 1 Epac (Epac): 1.3

8-(4-chloro-phenylthio)-2′-deoxyadenosine-3′,5′-cyclic monophosphate [Compound I-003]
Relative affinity CAMP = 1 PKAI (PKAI): 0.001
Relative affinity CAMP = 1 PKAII (PKAII): 0.001
Relative activity of Epac* (Epac1-ΔDEP1): +
Relative affinity CAMP = 1 Epac (Epac): 0.2

8-(4-methoxy-phenylthio)-2′-O-methyladenosine-3′,5′-cyclic monophosphate [Compound I-112]
Relative affinity CAMP = 1 PKAI (PKAI): 0.025
Relative affinity CAMP = 1 PKAII (PKAII): 0.0006
Relative activity of Epac* (Epac1-ΔDEP1): +++
Relative affinity CAMP = 1 Epac (Epac): 6.5

8-bromo-2′-deoxyadenosine-3′,5′-cyclic monophosphate [Compound I-002]
Relative affinity CAMP = 1 PKAI (PKAI): 0.01
Relative affinity CAMP = 1 PKAII (PKAII): 0.00001
Relative activity of Epac* (Epac1-ΔDEP1): +
Relative affinity CAMP = 1 Epac (Epac): 0.12

8-isopropylthio-2′-O-methyladenosine-3′,5′-cyclic monophosphate [Compound I-113]
Relative affinity CAMP = 1 PKAI (PKAI): 0.028
Relative affinity CAMP = 1 PKAII (PKAII): 0.0004
Relative activity of Epac* (Epac1-ΔDEP1): +
Relative affinity CAMP = 1 Epac (Epac): 0.7

2′-deoxyadenosine-3′,5′-cyclic monophosphate [Compound I-001]
Relative affinity CAMP = 1 PKAI (PKAI): 0.00013
Relative affinity CAMP = 1 PKAII (PKAII): 0.000088
Relative activity of Epac* (Epac1-ΔDEP1): +
Relative affinity CAMP = 1 Epac (Epac): 0.0025

8-methylamino-2′-O-methyladenosine-3′,5′-cyclic monophosphate [Compound I-100]
Relative affinity CAMP = 1 PKAI (PKAI): 0.0014
Relative affinity CAMP = 1 PKAII (PKAII): 0.0001
Relative activity of Epac* (Epac1-ΔDEP1): ±
Relative affinity CAMP = 1 Epac (Epac): <0.5

8-phenylthio-2′-O-methyladenosine-3′,5′-cyclic monophosphate [Compound I-105]
Relative affinity CAMP = 1 PKAI (PKAI): 0.02
Relative affinity CAMP = 1 PKAII (PKAII): 0.0005
Relative activity of Epac* (Epac1-ΔDEP1): ++
Relative affinity CAMP = 1 Epac (Epac): 3.6

8-n-hexylthio-2′-O-methyladenosine-3′,5′-cyclic monophosphate [Compound I-109]
Relative affinity CAMP = 1 PKAI (PKAI): 0.03
Relative affinity CAMP = 1 PKAII (PKAII): 0.0008
Relative activity of Epac* (Epac1-ΔDEP1): ++
Relative affinity CAMP = 1 Epac (Epac): 1.2

8-(naphtyl-2-thio)-2′-O-methyladenosine-3′,5′-cyclic monophosphate [Compound I-104]
Relative affinity CAMP = 1 PKAI (PKAI): 0.03
Relative affinity CAMP = 1 PKAII (PKAII): 0.001
Relative activity of Epac* (Epac1-ΔDEP1): ++
Relative affinity CAMP = 1 Epac (Epac): 2.3

8-benzylthio-2′-O-methyladenosine-3′,5′-cyclic monophosphate [Compound I-108]
Relative affinity CAMP = 1 PKAI (PKAI): 0.04
Relative affinity CAMP = 1 PKAII (PKAII): 0.0007
Relative activity of Epac* (Epac1-ΔDEP1): +
Relative affinity CAMP = 1 Epac (Epac): 1.3

8-methylthio-2′-O-methyladenosine-3′,5′-cyclic monophosphate [Compound I-101]
Relative affinity CAMP = 1 PKAI (PKAI): 0.012
Relative affinity CAMP = 1 PKAII (PKAII): 0.0006
Relative activity of Epac* (Epac1-ΔDEP1): +
Relative affinity CAMP = 1 Epac (Epac): 1.3

8-(4-methyl-cumarinyl-7-thio)-2′-O-methyladenosine-3′,5′-cyclic monophosphate [Compound I-103]
Relative affinity CAMP = 1 PKAI (PKAI): 0.03
Relative affinity CAMP = 1 PKAII (PKAII): 0.0005
Relative activity of Epac* (Epac1-ΔDEP1): ±
Relative affinity CAMP = 1 Epac (Epac): 1.8

8-(4-nitro-phenylthio)-2′-O-methyladenosine-3′,5′-cyclic monophosphate [Compound I-106]
Relative affinity CAMP = 1 PKAI (PKAI): 0.02
Relative affinity CAMP = 1 PKAII (PKAII): 0.0002
Relative activity of Epac* (Epac1-ΔDEP1): ++
Relative affinity CAMP = 1 Epac (Epac): 1.2

8-bromo-2′-O-methyladenosine-3′,5′-cyclic monophosphate [Compound I-006]
Relative affinity CAMP = 1 PKAI (PKAI): 0.0015
Relative affinity CAMP = 1 PKAII (PKAII): 0.003
Relative activity of Epac* (Epac1-ΔDEP1): ++
Relative affinity CAMP = 1 Epac (Epac): 0.9
